Converted amounts (≈) assume the structure as drawn. “And” between values parts separate entries of the source, which are not always exact repeats. Identical values can stand only once. Like-named read-outs stand apart in the source and are kept apart here.
Assays:
Assay type in all cases: physicochemical
[1] = Approximate aqueous solubility of the solid forms (solvent addition method); conditions: for solubility / Aqueous Solubility, Solubility in g/L: deionized water; for solubility: water, thermodynamic from solid
Method: (§1) The selected Forms (5, 3 and 2) were fully characterized by PLM, XRPD, ^1H NMR and IR spectroscopy, DSC, TG/DTA, GVS (with post-GVS XRPD), Karl Fischer titration for water content and HPLC analysis for purity. All of these forms with the addition of Form 1 were also placed under a stress-stability test, at three different conditions for one week (ambient conditions, 40° C. and 75% relative humidity, 80° C.). In addition to this, an approximate solubility test was conducted on the different solid forms using a solvent addition method.
Approximately 50 mg of each form (1, 2, 3 and 5) was weighed into a 2 ml vial. 20 μl aliquots of deionized water was added to each vial until complete dissolution of the solid was observed. The volume was noted down and the approximate water solubility calculated.

[2] = 7 day stress stability, chemical stability by HPLC; conditions: for Chemical stability: 1 week stress test, conditions studied; for Sialic acid Area % (HPLC): two injections; for HPLC purity of recovered samples: all three conditions (ambient; 40° C./75% RH; 80° C.)
Method: The chemical purity was measured on an Agilent HP1100 HPLC system fitted with an Agilent variable wavelength UV detector. Samples were prepared by dissolving in diluent at a concentration of 1 mg/mL before being analysed under the following HPLC conditions:
as §1
(§2) All four Forms (1, 2, 3 and 5) were placed under 7 day stress stability testing. This was carried out by placing the four forms under three different conditions for one week. Their physical stability was then analyzed by comparing the diffractograms and the chemical stability was checked by HPLC.

[3] = 7 day stress stability, physical form by XRPD; conditions: for Stability as a physical form (XRPD): 1 week stress test, overall
Method: XRPD analysis was carried out on a Panalytical X′pert Pro, scanning the samples between 3 and 35° […]. The material was gently ground and loaded onto a multi well plate with Kapton or mylar polymer film to support the sample. The multi well plate was then loaded into a Panalytical diffractometer running in transmission mode and analysed, using the following experimental conditions.
as §1, §2

[4] = Gravimetric Vapour Sorption (GVS) with post-GVS XRPD; conditions: for GVS mass difference: between 0-90% relative humidity; for Polymorphic form after GVS (XRPD): material reclaimed after GVS run
Method: Approximately 10-20 mg of sample was placed into a mesh vapour sorption balance pan and loaded into an IGASorp Moisture Sorption Analyser balance by Hiden Analytical. The sample was subjected to a ramping profile from 40-90% relative humidity (RH) at 10% increments, maintaining the sample at each step until a stable weight had been achieved (98% step completion). After completion of the sorption cycle, the sample was dried using the same procedure to 0% RH, and finally taken back to the starting point of 40% RH. The weight change during the sorption/desorption cycles were plotted, allowing for the hygroscopic nature of the sample to be determined.

[5] = Competitive slurry experiments (polymorph stability)
Method: Competitive slurry experiments were conducted between Forms 1 and 3 and between Forms 1 and 2. A mixture of the two forms (25 mg per form) being investigated was slurried in 1 mL of solvent for one day at 20° C. or 60° C. in five different solvents (acetone, acetic acid, ethanol, ethyl acetate and ethynol).
Competitive slurries were performed to compare the relative stability between two forms at a given temperature in a given solvent.

[6] = Slurries of Form 1 at 5° C. followed by XRPD over time
Method: Due to the discolouration of samples during slurry experiments in water and water/acetic acid mixtures, slurries of sialic acid (Form 1) were made at 5° C. in water, water/acetic acid (80/20 v/v) mixture, ethyl acetate and acetic acid and stirred for […]. Diffractograms of the slurried solids were recorded after 10 minutes, 4 hours, 20 hours and 28 hours. Form 5 was obtained in slurries containing water at all time points. Form 1 was obtained for acetic acid and ethyl acetate for all time points.

HPLC-UV chemical purity = conditions: for HPLC (purity): summary Table 13
Method: The chemical purity was measured on an Agilent HP1100 HPLC system fitted with an Agilent variable wavelength UV detector. Samples were prepared by dissolving in diluent at a concentration of 1 mg/mL before being analysed under the following HPLC conditions: […]

[7] = Thermogravimetric/Differential Thermal Analysis (TG/DTA)
Method: Approximately, 10 mg of material was weighed into an open aluminium pan and loaded into a simultaneous thermogravimetric/differential thermal analyser (TG/DTA) and held at room temperature. The sample was then heated at a rate of 10° C./min from 25° C. to 300° C. during which time the change in sample weight was recorded along with any differential thermal events (DTA). Nitrogen was used as the purge gas, at a flow rate of 300 cm^3/min.

[8] = Differential Scanning Calorimetry (DSC)
Method: Approximately, 5 mg of material was weighed into an aluminium DSC pan and sealed non-hermetically with a pierced aluminium lid. The sample pan was then loaded into a Seiko DSC6200 (equipped with a cooler) cooled and held at 25° C. Once a stable heat-flow response was obtained, the sample and reference were heated to 210° C. at a scan rate of 10° C./min and the resulting heat flow response monitored. Nitrogen was used as the purge gas, at a flow rate of 50 cm^3/min.

[9] = PLM (morphology) of the solid forms; conditions: for PLM (morphology): particle shape
[10] = Desolvation / dehydration on heating, form checked by XRPD
Method: A weight loss of 33.1% is observed, prior to decomposition, which coincides with an onset in the DTA profile at ca. 108.8° C. (onset of the endotherm). The second endothermic event corresponds with decomposition at ca. 186.3° C. (onset of the endotherm). The 33.1% of loss of weight corresponds to 1.96 molecules of DMSO for 1 molecule of sialic acid. It is thus very likely that Form 4 is a stoichiometric bis-solvate (2:1). The ^1H NMR spectrum is consistent with sialic acid. The only noticeable difference between the spectra of Form 1 and Form 4 is the relative size of the resonance at ca. 2.5 ppm. This is due to DMSO, which further supports that Form 4 is a DMSO solvate.
Referring to PLM images (FIG. 20), the habit of Form 5 is block-like with a length around 100 μm. Strong birefringence is observed. […] Further weight losses are present, which may be due to decomposition. The loss of weight of 10.5% correlates very well with the KF Titration (10.34%). It is very likely Form 5 is a dihydrate (expected loss of weight for a dihydrate is 10.44%). […] This possibly indicates the formation of a new anhydrous form by desolvation of Form 5 (onset seen for Form 1 is ca. 188.9° C.). The difference between the TG/DTA and the DSC traces is likely to be due to the difference in pan (open pan for TG/DTA and pierced closed pan for DSC). […]

[11] = after 1 week under 40° C., 75% RH
[12] = after 1 week under ambient conditions
[13] = acetone, ethanol, ethyl acetate, ethynol, 20° C. or 60° C.
[14] = 1 week under ambient conditions

Compound	Chemical stability [2]	Sialic acid Area % (HPLC) [2, 11]	Sialic acid Area % (HPLC) [2, 12]	HPLC purity of recovered samples ([2]; after 1 week)	Stability as a physical form (XRPD) [3]	Hygroscopicity (GVS) [4]	Stability when exposed to different humidity levels [4]	XRPD post DVS [4]	GVS mass difference [4] [%]	Polymorphic form after GVS (XRPD) [4]	HPLC (purity) (HPLC-UV chemical purity)	TGA Decomposition temperature [7]	DSC (thermal events) Endotherm [8]	PLM (morphology), particle size [9] [μm]	PLM (morphology) [9]	Approximate solubility ([1]; aqueous) [mg/mL]	Aqueous Solubility, Solubility in g/L ([1]; approximate, solvent addition) [g/L]	Physical form (XRPD) after stress ([3]; 1 week at 80° C.)	Physical form (XRPD) after stress [3, 14]	Stability - XRPD post Stability ([3]; at 80° C.)	further results
CC(=O)N[C@H]1[C@H]([C@H](O)[C@H](O)CO)OC(O)(C(=O)O)C[C@@H]1O (stereo partly drawn) [Form 1, N-acetylneuraminic acid]	stable	99.580% and 99.590%	99.705% and 99.711%	higher than 99.5%	stable	very slightly hygroscopic	stable	no change	1.4	same polymorphic form (Form 1)	99.5%	at 190.2 °C	188.6° ° C.	<10	Small needles						solubility ([1]; aqueous, read-out: Approximate solubility): 98.5 g/L (≈ 318 mM); solubility ([1]; approximate, solvent addition, read-out: Aqueous Solubility, Solubility in g/L): 98.5 g/L (≈ 318 mM); N-acetyl-D-glucosamine Area % (HPLC) [2, 11]: 0.079% and 0.081%; N-acetyl-D-glucosamine Area % (HPLC) ([2]; after 1 week under 80° C.): 0.062%; N-acetyl-D-glucosamide known impurity [2, 12]: 0.076%; Stability - XRPD post Stability ([3]; no single condition stated): no change; Form recovered from competitive slurry between Forms 1 and 2 ([5]; acetic acid): mixture of Forms 1 and 3; Form recovered from competitive slurry between Forms 1 and 3 ([5]; acetic acid): mixture of Form 1 and 3; Form recovered from competitive slurry between Forms 1 and 2 [5, 13]: Form 1 is recovered; Form recovered from competitive slurry between Forms 1 and 3 [5, 13]: Form 1 is recovered; Relative stability, competitive slurries between Forms 1 and 2 ([5]; all studied conditions): more stable than Form 2; Relative stability, competitive slurries between Forms 1 and 3 ([5]; all studied conditions except in acetic acid): more stable than Form 3; Overall relative stability of the form ([5]; competitive slurries, most of the studied conditions): thermodynamically most stable form; Form obtained from slurry (XRPD) ([6]; acetic acid, all time points): Form 1; Form obtained from slurry (XRPD) ([6]; ethyl acetate, all time points): Form 1; Time to full conversion to Form 5 in slurry ([6]; water and water/acetic acid (80:20 v/v)): ≤ 10 min; Form obtained from slurry (XRPD) ([6]; water, all time points (10 minutes to 28 hours)): Form 5; Form obtained from slurry (XRPD) ([6]; water/acetic acid (80/20 v/v), all time points): Form 5
CC(=O)N[C@H]1[C@H]([C@H](O)[C@H](O)CO)OC(O)(C(=O)O)C[C@@H]1O (stereo partly drawn) [Form 3, N-acetylneuraminic acid]	moderate chemical stability	98.011% and 98.031%	99.684% and 99.715%	higher than 98%	not stable			change		converts to Form 1	99.8%	176.2° ° C.	107° ° C. and 181.0° ° C.	<30	Small needles	188.2	188.2	to Form 2	converts to Form 2	Form 2 at 80 °C	Sialic acid Area % (HPLC) ([2]; after 1 week under 80° C.): 99.526% and 99.523%; Stability - XRPD post Stability ([3]; at RT): Form 2 at RT; DVS (hygroscopicity) [4]: Goes to form 1; GVS weight loss (desolvation) ([4]; on increase of humidity): 16%; DVS, RH at which the form goes to form 1 ([4]; relative humidity): RH >50%; TGA (weight loss) [7]: 15.3%; TGA temperature of the weight loss [7]: (80° C.)
CC(=O)N[C@H]1[C@H]([C@H](O)[C@H](O)CO)OC(O)(C(=O)O)C[C@@H]1O (stereo partly drawn) [Form 4, N-acetylneuraminic acid]																					Form after desolvation (XRPD) ([10]; 15 min at 100° C. under vacuum): converted to Form 1
CC(=O)N[C@H]1[C@H]([C@H](O)[C@H](O)CO)OC(O)(C(=O)O)C[C@@H]1O (stereo partly drawn) [Form 5, N-acetylneuraminic acid]		99.899% and 99.919%				very slightly hygroscopic	stable	no change	1.45	same polymorphic form (Form 5)	99.80% and 99.90%			< 100	Blocks	96.6	96.6	converts to an unknown form	stable	New form 80 °C	HPLC (purity) ([2]; after 1 week at 80° C.): 96.8%; Sodium Pyruvate Area % (HPLC) ([2]; after 1 week under 80° C.): 0.559%; HPLC (purity) ([2]; after 1 week, both ambient and 40° C./75% RH samples): higher than 99.9%; Area % Acetic acid (HPLC) ([2]; stability under 80° C.): 0.000%; Area % N-acetyl-D-glucosamine (HPLC) ([2]; stability under 80° C.): 0.000%; Area % N-acetyl-D-mannosamine (HPLC) ([2]; stability under 80° C.): 0.000%; Physical form (XRPD) after stress ([3]; 1 week at 40° C./75% RH): stable; Stability - XRPD post Stability ([3]; at RT): Form 5 at RT; Form after dehydration (XRPD) ([10]; held at 90° C. for 35 min in TG/DTA apparatus): unknown form; Area % Sodium Pyruvate (HPLC) (HPLC-UV chemical purity; no stress condition stated): 0.000%; TGA (weight loss) [7]: 10.5%; TGA temperature of the weight loss [7]: (88.4° C.)

Source: patent US10385085B2, “Crystal forms of sialic acid or salt or solvate thereof” (Ultragenyx Pharmaceutical Inc., priority 2015, dated 2019)
